Data: patent publication US7592326B2, “Method for stimulating the immune, inflammatory or neuroprotective response” (priority 2004, dated 2009)

System: JNK
Experiment: Signaling in human DCs: JNK
Format: cell-based
Conditions: under the conditions tested
Method: Human PBMC were isolated by Ficoll density gradient centrifugation from leukopacks supplied by the Department of Transfusion Medicine (Clinical Center, National Institute of Health, Bethesda, Md.). Monocytes were purified (>95%) from human PBMC with MACS CD14 monocyte isolation kit (Miltenyi Biotech Inc., Auburn, Calif.) according to the manufacturer's instruction. DCs were generated as described previously (Yang et al., 2001). In brief, DCs were generated by incubating purified monocytes at 2×10^5/ml in RPMI 1640 containing 10% FBS, 2 mM glutamine, 25 mM HEPES, 100 U/ml penicillin, 100 ug/ml streptomycin, 50 ng/ml recombinant human GM-CSF (PeproTech, Rocky Hill, N.J.), and 50 ng/ml recombinant human IL-4 (PeproTech) at 37° C. in a CO2 (5%) incubator for 7 days. On day 3 and 5 of the incubation, half of the culture medium was replaced with pre-warmed (37° C.) fresh GM-CSF- and IL-4-containing medium. On day 7, DCs were collected, washed three times with PBS, and serum-starved for 8 hours by incubating in serum-free RPMI-1640 containing GM-CSF and IL-4 (2×10^5/ml) at 37° C. in a CO2 (5%) incubator. Subsequently, DCs (2×10^6/sample) were incubated at 37° C. in the absence or presence of c-di-GMP or GMP (Sigma, St. Louis, Mo.) at concentrations specified for 5 or 30 minutes. […]

Structure (SMILES): Nc1nc(=O)c2ncn([C@@H]3OC4COP(=O)(O)O[C@H]5[C@@H](O)[C@H](n6cnc7c(=O)nc(N)[nH]c76)O[C@@H]5COP(=O)(O)OC4C3O)c2[nH]1 (stereo partly shown) [c-di-GMP, Bis(3′→5′)-cyclic diguanylic acid]
- activation of JNK: did not activate
